# Data as given in patent US20240101540A1, “TARGETED PROTEIN DEGRADATION OF PARP14 FOR USE IN THERAPY” (Ribon Therapeutics, Inc., priority 2022, published 2024).
# Structures can show the parent of a compound that is named as a salt. Where two headings read alike, the source gives them in different places.
# Molecular target: T1, catalytic domain of human PARP14 (residues 1611 to 1801) with NanoLuc tag (Homo sapiens, UniProt Q460N5)
# T1 construct: expressed in transfected cells; host or cells: HEK-293T cells (ATCC), pcDNA3.1(-) vector
# T1 sequence (Q460N5 1611-1801): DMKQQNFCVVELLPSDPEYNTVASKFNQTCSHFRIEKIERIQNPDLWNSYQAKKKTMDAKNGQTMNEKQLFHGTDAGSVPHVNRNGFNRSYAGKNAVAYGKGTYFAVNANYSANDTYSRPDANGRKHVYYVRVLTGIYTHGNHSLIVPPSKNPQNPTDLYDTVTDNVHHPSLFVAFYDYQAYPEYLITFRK
# Assay: NanoLuc assay for the degradation of PARP14 (NanoLuc-tagged PARP14 overexpressed in HEK-293T cells, 2 hours)
# Assay type: cell-based
# Conditions: Assay A (Example A): NanoLuc-tagged PARP14 degradation in HEK-293T cells
Compound,DC50 [nM],DC50 (read-out: DC50) [nM]
"O=C1CCC(Nc2ccc(N3CCN(CCN4CCC(COc5cc(F)c6c(=O)[nH]c(CSC7CCOCC7)nc6c5)CC4)CC3)cc2)C(=O)N1 (stereo not drawn) [Example 48, 3-((4-(4-(2-(4-(((5-fluoro-4-oxo-2-(((tetrahydro-2H-pyran-4-yl)thio)methyl)-3,4-dihydroquinazolin-7-yl)oxy)methyl)piperidin-1-yl)ethyl)piperazin-1-yl)phenyl)amino)piperidine-2,6-dione]",< 100,
"O=C1CCC(Nc2ccc(C3CCN(CCN4CCC(COc5cc(F)c6c(=O)[nH]c(CSC7CCOCC7)nc6c5)CC4)CC3)cc2)C(=O)N1 (stereo not drawn) [Example 49, 3-((4-(1-(2-(4-(((5-fluoro-4-oxo-2-(((tetrahydro-2H-pyran-4-yl)thio)methyl)-3,4-dihydroquinazolin-7-yl)oxy)methyl)piperidin-1-yl)ethyl)piperidin-4-yl)phenyl)amino)piperidine-2,6-dione]",,< 100
"O=C1CCC(Nc2ccc(N3CCN(CCN4CCC(COc5cc(F)c6c(=O)[nH]c(CSC7CCOCC7)nc6c5)CC4)CC3)c(C(F)(F)F)c2)C(=O)N1 (stereo not drawn) [Example 50, 3-((4-(4-(2-(4-(((5-fluoro-4-oxo-2-(((tetrahydro-2H-pyran-4-yl)thio)methyl)-3,4-dihydroquinazolin-7-yl)oxy)methyl)piperidin-1-yl)ethyl)piperazin-1-yl)-3-(trifluoromethyl)phenyl)amino)piperidine-2,6-dione]",,< 100
"O=C1CCC(Nc2ccc(N3CC(N4CCC(COc5cc(F)c6c(=O)[nH]c(CSC7CCOCC7)nc6c5)CC4)C3)cc2)C(=O)N1 (stereo not drawn) [Example 51, 3-((4-(3-(4-(((5-fluoro-4-oxo-2-(((tetrahydro-2H-pyran-4-yl)thio)methyl)-3,4-dihydroquinazolin-7-yl)oxy)methyl)piperidin-1-yl)azetidin-1-yl)phenyl)amino)piperidine-2,6-dione]",,< 100
"O=C1CCC(Nc2ccc(N3CC(N4CCC(COc5cc(F)c6c(=O)[nH]c(CSC7CCOCC7)nc6c5)C(F)(F)C4)C3)cc2)C(=O)N1 (stereo not drawn) [Example 52, 3-((4-(3-(3,3-difluoro-4-(((5-fluoro-4-oxo-2-(((tetrahydro-2H-pyran-4-yl)thio)methyl)-3,4-dihydroquinazolin-7-yl)oxy)methyl)piperidin-1-yl)azetidin-1-yl)phenyl)amino)piperidine-2,6-dione formate salt]",,< 100
"O=C1CCC(Nc2ccc(N3CC(CN4CCC(COc5cc(F)c6c(=O)[nH]c(CSC7CCOCC7)nc6c5)CC4)C3)cc2)C(=O)N1 (stereo not drawn) [Example 53, 3-((4-(3-((4-(((5-fluoro-4-oxo-2-(((tetrahydro-2H-pyran-4-yl)thio)methyl)-3,4-dihydroquinazolin-7-yl)oxy)methyl)piperidin-1-yl)methyl)azetidin-1-yl)phenyl)amino)piperidine-2,6-dione]",,< 100
"O=C1CCN(c2cccc(N3CC(CN4CCC(COc5cc(F)c6c(=O)[nH]c(CSC7CCOCC7)nc6c5)CC4)C3)c2)C(=O)N1 [Example 54, 1-(3-(3-((4-(((5-fluoro-4-oxo-2-(((tetrahydro-2H-pyran-4-yl)thio)methyl)-3,4-dihydroquinazolin-7-yl)oxy)methyl)piperidin-1-yl)methyl)azetidin-1-yl)phenyl)dihydropyrimidine-2,4(1H,3H)-dione formate salt]",,< 100
"O=C1CCC(Nc2ccc(OCCN3CCC(COc4cc(F)c5c(=O)[nH]c(CSC6CCOCC6)nc5c4)CC3)cc2)C(=O)N1 (stereo not drawn) [Example 58, 3-((4-(2-(4-(((5-fluoro-4-oxo-2-(((tetrahydro-2H-pyran-4-yl)thio)methyl)-3,4-dihydroquinazolin-7-yl)oxy)methyl)piperidin-1-yl)ethoxy)phenyl)amino)piperidine-2,6-dione]",,< 100
"O=C1CCC(N2Cc3cc(N4CCN(CCN5CCC(COc6cc(F)c7c(=O)[nH]c(CSC8CCOCC8)nc7c6)CC5)CC4)ccc3C2=O)C(=O)N1 (stereo not drawn) [Example 59, 3-(5-(4-(2-(4-(((5-fluoro-4-oxo-2-(((tetrahydro-2H-pyran-4-yl)thio)methyl)-3,4-dihydroquinazolin-7-yl)oxy)methyl)piperidin-1-yl)ethyl)piperazin-1-yl)-1-oxoisoindolin-2-yl)piperidine-2,6-dione]",,< 100
"O=C1CCC(N2Cc3c(cccc3N3CCN(CCN4CCC(COc5cc(F)c6c(=O)[nH]c(CSC7CCOCC7)nc6c5)CC4)CC3)C2=O)C(=O)N1 (stereo not drawn) [Example 60, 3-(4-(4-(2-(4-(((5-fluoro-4-oxo-2-(((tetrahydro-2H-pyran-4-yl)thio)methyl)-3,4-dihydroquinazolin-7-yl)oxy)methyl)piperidin-1-yl)ethyl)piperazin-1-yl)-1-oxoisoindolin-2-yl)piperidine-2,6-dione]",,< 100
"O=C1CCC(N2C(=O)c3cccc(N4CCN(CCN5CCC(COc6cc(F)c7c(=O)[nH]c(CSC8CCOCC8)nc7c6)CC5)CC4)c3C2=O)C(=O)N1 (stereo not drawn) [Example 61, 2-(2,6-dioxopiperidin-3-yl)-4-(4-(2-(4-(((5-fluoro-4-oxo-2-(((tetrahydro-2H-pyran-4-yl)thio)methyl)-3,4-dihydroquinazolin-7-yl)oxy)methyl)piperidin-1-yl)ethyl)piperazin-1-yl)isoindoline-1,3-dione]",,< 100
"O=C1CCC(N2C(=O)c3ccc(N4CCN(CCN5CCC(COc6cc(F)c7c(=O)[nH]c(CSC8CCOCC8)nc7c6)CC5)CC4)cc3C2=O)C(=O)N1 (stereo not drawn) [Example 62, 2-(2,6-dioxopiperidin-3-yl)-5-(4-(2-(4-(((5-fluoro-4-oxo-2-(((tetrahydro-2H-pyran-4-yl)thio)methyl)-3,4-dihydroquinazolin-7-yl)oxy)methyl)piperidin-1-yl)ethyl)piperazin-1-yl)isoindoline-1,3-dione]",,< 100
"O=C1CCC(Nc2cccc(N3CCN(CCN4CCC(COc5cc(F)c6c(=O)[nH]c(CSC7CCOCC7)nc6c5)CC4)CC3)c2)C(=O)N1 (stereo not drawn) [Example 63, 3-((3-(4-(2-(4-(((5-fluoro-4-oxo-2-(((tetrahydro-2H-pyran-4-yl)thio)methyl)-3,4-dihydroquinazolin-7-yl)oxy)methyl)piperidin-1-yl)ethyl)piperazin-1-yl)phenyl)amino)piperidine-2,6-dione]",,< 100
"O=C1CCC(Oc2ccc(N3CCN(CCN4CCC(COc5cc(F)c6c(=O)[nH]c(CSC7CCOCC7)nc6c5)CC4)CC3)cc2)C(=O)N1 (stereo not drawn) [Example 65, 3-(4-(4-(2-(4-(((5-fluoro-4-oxo-2-(((tetrahydro-2H-pyran-4-yl)thio)methyl)-3,4-dihydroquinazolin-7-yl)oxy)methyl)piperidin-1-yl)ethyl)piperazin-1-yl)phenoxy)piperidine-2,6-dione]",,< 100
"CN(c1ccc(N2CCN(CCN3CCC(COc4cc(F)c5c(=O)[nH]c(CSC6CCOCC6)nc5c4)CC3)CC2)cc1)C1CCC(=O)NC1=O (stereo not drawn) [Example 66, 3-((4-(4-(2-(4-(((5-fluoro-4-oxo-2-(((tetrahydro-2H-pyran-4-yl)thio)methyl)-3,4-dihydroquinazolin-7-yl)oxy)methyl)piperidin-1-yl)ethyl)piperazin-1-yl)phenyl)(methyl)amino)piperidine-2,6-dione]",,< 100
"O=C1CCC(Nc2cccc(C3CCN(CCN4CCC(COc5cc(F)c6c(=O)[nH]c(CSC7CCOCC7)nc6c5)CC4)CC3)c2)C(=O)N1 (stereo not drawn) [Example 67, 3-((3-(1-(2-(4-(((5-fluoro-4-oxo-2-(((tetrahydro-2H-pyran-4-yl)thio)methyl)-3,4-dihydroquinazolin-7-yl)oxy)methyl)piperidin-1-yl)ethyl)piperidin-4-yl)phenyl)amino)piperidine-2,6-dione]",,< 100
"O=C1CCC(Nc2ccc(N3CCN(CCN4CCC(COc5cc(F)c6c(=O)[nH]c(COC7CCOCC7)nc6c5)CC4)CC3)cc2)C(=O)N1 (stereo not drawn) [Example 68, 3-((4-(4-(2-(4-(((5-fluoro-4-oxo-2-(((tetrahydro-2H-pyran-4-yl)oxy)methyl)-3,4-dihydroquinazolin-7-yl)oxy)methyl)piperidin-1-yl)ethyl)piperazin-1-yl)phenyl)amino)piperidine-2,6-dione]",,< 100
"O=C1CCC(Nc2ccc(N3CCN(CCN4CCC(COc5cc(F)c6c(=O)[nH]c(CSC7CCOCC7)nc6c5)CC4)CC3)nc2)C(=O)N1 (stereo not drawn) [Example 69, 3-((6-(4-(2-(4-(((5-fluoro-4-oxo-2-(((tetrahydro-2H-pyran-4-yl)thio)methyl)-3,4-dihydroquinazolin-7-yl)oxy)methyl)piperidin-1-yl)ethyl)piperazin-1-yl)pyridin-3-yl)amino)piperidine-2,6-dione]",,< 100
"O=C1CCN(c2ccc(N3CCN(CCN4CCC(COc5cc(F)c6c(=O)[nH]c(CSC7CCOCC7)nc6c5)CC4)CC3)cc2)C(=O)N1 [Example 70, 1-(4-(4-(2-(4-(((5-fluoro-4-oxo-2-(((tetrahydro-2H-pyran-4-yl)thio)methyl)-3,4-dihydroquinazolin-7-yl)oxy)methyl)piperidin-1-yl)ethyl)piperazin-1-yl)phenyl)dihydropyrimidine-2,4(1H,3H)-dione]",,< 100
"O=C1CCC(Nc2ccc(N3C4CC3CN(CCN3CCC(COc5cc(F)c6c(=O)[nH]c(CSC7CCOCC7)nc6c5)CC3)C4)cc2)C(=O)N1 (stereo not drawn) [Example 71, 3-((4-(3-(2-(4-(((5-fluoro-4-oxo-2-(((tetrahydro-2H-pyran-4-yl)thio)methyl)-3,4-dihydroquinazolin-7-yl)oxy)methyl)piperidin-1-yl)ethyl)-3,6-diazabicyclo[3.1.1]heptan-6-yl)phenyl)amino)piperidine-2,6-dione]",,< 100
"O=C1CCC(N2C(=O)c3ccc(C#CC4CCN(CCN5CCC(COc6cc(F)c7c(=O)[nH]c(CSC8CCOCC8)nc7c6)CC5)CC4)cc3C2=O)C(=O)N1 (stereo not drawn) [Example 72, 2-(2,6-dioxopiperidin-3-yl)-5-((1-(2-(4-(((5-fluoro-4-oxo-2-(((tetrahydro-2H-pyran-4-yl)thio)methyl)-3,4-dihydroquinazolin-7-yl)oxy)methyl)piperidin-1-yl)ethyl)piperidin-4-yl)ethynyl)isoindoline-1,3-dione]",,< 100
